The subject of one assay is Caco-2 cells. Briefly: Proliferation assay, Caco-2 (crystal violet). The format is cell-based. Conditions: Homo sapiens, 96 h; Caco-2, 4 days; read-out: Inhibition of Caco-2 cell proliferation IC50. The method, then: (§1) Cultivated tumour cells (HeLa, human cervical tumour cells, ATCC CCL-2; NCI-H460, human non-small cell lung carcinoma cells, ATCC HTB-177; DU 145, hormone-independent human prostate carcinoma cells, ATCC HTB-81; HeLa-MaTu-ADR, multidrug-resistant human cervical carcinoma cells, EPO-GmbH Berlin; Caco-2, human colorectal carcinoma cells, ATCC HTB-37; B16F10, mouse melanoma cells, ATCC CRL-6475) were plated at a density of 5,000 cells/well (DU145, HeLa-MaTu-ADR), 3,000 cells/well (NCI-H460, HeLa), 1,500 cells/well (Caco-2), or 1,000 cells/well (B16F10) in a 96-well multititer plate in 200 μL of their respective growth medium supplemented 10% fetal calf serum. After 24 hours, the cells of one plate (zero-point plate) were stained with crystal violet (see below), while the medium of the other plates was supplemented with the test substances in various concentrations (0 μM, as well as in the range of 0.0001-10 μM; the final concentration of the solvent dimethyl sulfoxide was adjusted to 0.1%) using a Hewlett-Packard HP D300 Digital Dispenser. The cells were incubated for 4 days in the presence of test substances. Cell proliferation was determined by staining the cells with crystal violet: the cells were fixed by adding 20 μl/measuring point of an 11% glutaric aldehyde solution for 15 minutes at room temperature. After three washing cycles of the fixed cells with water, the plates were dried at room temperature. The cells were stained by adding 100 μl/measuring point of a 0.1% crystal violet solution (pH 3.0). After three washing cycles of the stained cells with water, the plates were dried at room temperature. The dye was dissolved by adding 100 μl/measuring point of a 10% acetic acid solution. The extinction was determined by photometry at a wavelength of 595 nm. The change of cell number, in percent, was calculated by normalization of the measured values to the extinction values of the zero-point plate (=0%) and the extinction of the untreated (0 Wm) cells (=100%). The IC50 values (inhibitory concentration at 50% of maximal effect) were determined by means of a 4 parameter fit.

Another assay deals with A2780 cells. In words: Proliferation assay, A2780 (Cell Titre-Glo). The format is cell-based. The conditions noted are these: Homo sapiens; A2780, 72-hour exposure; read-out: Inhibition of A2780 cell proliferation IC50. The method, then:
A2780 human ovarian carcinoma cells (ECACC #93112519) and non-adherent MOLM-13 human acute myeloid leukemia cells (DSMZ ACC 554) were seeded at a density of 3,000 cell/well (A2780) or 5,000 cells/well (MOLM-13) in a 96-well multititer plate in 150 μL of growth medium supplemented 10% fetal calf serum. After 24 hours, cell viability of one plate (zero-point plate) was determined with the Cell Titre-Glo Luminescent Cell Viability Assay (Promega), while the medium of the other plates was supplemented with the test substances in various concentrations (0 μM, as well as in the range of 0.0001-10 μM; the final concentration of the solvent dimethyl sulfoxide was adjusted to 0.1%) using a Hewlett-Packard HP D300 Digital Dispenser. Cell viability was assessed after 72-hour exposure with the Cell Titre-Glo Luminescent Cell Viability Assay (Promega). IC50 values (inhibitory concentration at 50% of maximal effect) were determined by means of a 4 parameter fit on measurement data which were normalized to vehicle (DMSO) treated cells (=100%) and measurement readings taken immediately before compound exposure (=0%).

The subject of a further assay is DU145 cells. Briefly: Proliferation assay, DU145 (crystal violet). The format is cell-based. Conditions: Homo sapiens, DU-145, 96 h; DU145, 4 days; read-out: Inhibition of DU145 cell proliferation IC50. The protocol:
as §1

The next assay has as its target T1, CDK9/CycT1 (Homo sapiens, UniProt P50750).
T1 construct: Recombinant full-length His-tagged human CDK9 and CycT1; His; purchased Life Technologies PV4131; host or cells: insect cells
In words: CDK9/CycT1 high ATP kinase assay (TR-FRET). The format is biochemical. The conditions noted are these: 2 mM ATP; for IC50: Method 1b; for Selectivity high ATP CDK9 over high ATP CDK2: IC50 (high ATP CDK2)/IC50 (high ATP CDK9): minimal values where CDK9 IC50 is at the assay limit of about 1-2 nM. The protocol: 1b. CDK9/CycT1 High ATP Kinase Assay
CDK9/CycT1-inhibitory activity of compounds of the present invention at a high ATP concentration after preincubation of enzyme and test compounds was quantified employing the CDK9/CycT1 TR-FRET assay as described in the following paragraphs.
Recombinant full-length His-tagged human CDK9 and CycT1, expressed in insect cells and purified by Ni-NTA affinity chromatography, were purchased from Life Technologies (Cat. No PV4131). As substrate for the kinase reaction biotinylated peptide biotin-Ttds-YISPLKSPYKISEG (C-terminus in amide form) was used which can be purchased e.g. form the company JERINI peptide technologies (Berlin, Germany).
For the assay 50 nl of a 100 fold concentrated solution of the test compound in DMSO was pipetted into either a black low volume 384 well microtiter plate or a black 1536 well microtiter plate (both Greiner Bio-One, Frickenhausen, Germany), 2 μl of a solution of CDK9/CycT1 in aqueous assay buffer [50 mM Tris/HCl pH 8.0, 10 mM MgCl2, 1.0 mM dithiothreitol, 0.1 mM sodium ortho-vanadate, 0.01% (v/v) Nonidet-P40 (Sigma)] were added and the mixture was incubated for 15 min at 22° C. to allow pre-binding of the test compounds to the enzyme before the start of the kinase reaction. […] The concentration of CDK9/CycT1 was adjusted depending of the activity of the enzyme lot and was chosen appropriate to have the assay in the linear range, typical concentrations were in the range of 0.5 μg/ml. The reaction was stopped by the addition of 3 μl of a solution of TR-FRET detection reagents (0.33 μM streptavidine-XL665 [Cisbio Bioassays, Codolet, France] and 1.67 nM anti-RB(pSer807/pSer811)-antibody from BD Pharmingen [#558389] and 2 nM LANCE EU-W1024 labeled anti-mouse IgG antibody [Perkin-Elmer, product no. AD0077]) in an aqueous EDTA-solution (167 mM EDTA, 0.2% (w/v) bovine serum albumin in 100 mM HEPES pH 7.5).
The resulting mixture was incubated 1 h at 22° C. to allow the formation of complex between the phosphorylated biotinylated peptide and the detection reagents. Subsequently the amount of phosphorylated substrate was evaluated by measurement of the resonance energy transfer from the Eu-chelate to the streptavidine-XL. Therefore, the fluorescence emissions at 620 nm and 665 nm after excitation at 350 nm was measured in a TR-FRET reader, e.g. a Pherastar (BMG Labtechnologies, Offenburg, Germany) or a Viewlux (Perkin-Elmer). The ratio of the emissions at 665 nm and at […] was taken as the measure for the amount of phosphorylated substrate. The data were normalised (enzyme reaction without inhibitor=0% inhibition, all other assay components but no enzyme=100% inhibition).

In another assay the test system is B16F10 cells. In words: Proliferation assay, B16F10 (crystal violet). The format is cell-based. Conditions: Mus musculus, B16-F10, 96 h; B16F10, 4 days; read-out: Inhibition of B16F10 cell proliferation IC50. The protocol: as §1

Experimental findings from US11691986B2, “PTEFB inhibiting macrocyclic compounds” (Bayer Aktiengesellschaft, priority 2017, dated 2023) are described below.

T1 sequence (P50750 whole entry): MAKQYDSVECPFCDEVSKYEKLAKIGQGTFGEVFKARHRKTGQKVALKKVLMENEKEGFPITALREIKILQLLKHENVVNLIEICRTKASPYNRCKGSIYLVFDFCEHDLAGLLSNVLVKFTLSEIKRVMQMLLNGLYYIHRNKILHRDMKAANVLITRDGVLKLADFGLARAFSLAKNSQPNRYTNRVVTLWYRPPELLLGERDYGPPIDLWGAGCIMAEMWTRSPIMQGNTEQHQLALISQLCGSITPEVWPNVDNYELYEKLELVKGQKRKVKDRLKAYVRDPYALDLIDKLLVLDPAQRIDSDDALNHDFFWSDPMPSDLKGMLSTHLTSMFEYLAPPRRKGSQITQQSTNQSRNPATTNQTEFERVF
T1 sequence (O60563 whole entry partner): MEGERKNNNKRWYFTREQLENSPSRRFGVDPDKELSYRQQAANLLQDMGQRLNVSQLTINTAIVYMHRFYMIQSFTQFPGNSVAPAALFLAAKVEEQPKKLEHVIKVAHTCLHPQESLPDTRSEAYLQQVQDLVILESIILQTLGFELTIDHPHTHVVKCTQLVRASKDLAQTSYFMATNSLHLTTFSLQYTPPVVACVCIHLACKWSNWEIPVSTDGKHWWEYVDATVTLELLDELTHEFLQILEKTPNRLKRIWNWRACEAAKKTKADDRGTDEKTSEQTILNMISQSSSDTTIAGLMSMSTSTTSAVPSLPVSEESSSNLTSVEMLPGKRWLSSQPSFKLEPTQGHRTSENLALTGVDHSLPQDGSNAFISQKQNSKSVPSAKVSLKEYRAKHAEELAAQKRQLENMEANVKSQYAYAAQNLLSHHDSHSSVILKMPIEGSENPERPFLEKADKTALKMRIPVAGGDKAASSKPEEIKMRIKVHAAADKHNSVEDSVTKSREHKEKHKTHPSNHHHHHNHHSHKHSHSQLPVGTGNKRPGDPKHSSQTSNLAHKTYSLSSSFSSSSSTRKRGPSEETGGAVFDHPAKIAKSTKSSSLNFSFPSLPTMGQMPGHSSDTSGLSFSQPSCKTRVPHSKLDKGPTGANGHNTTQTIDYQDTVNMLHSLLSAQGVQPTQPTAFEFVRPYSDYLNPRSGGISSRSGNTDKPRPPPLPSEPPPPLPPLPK

On to `CC(C)(C)OC(=O)N=S(C)(=O)Cc1cc2cc(c1)OCCCCNc1cc(ccc1F)-c1nc(ncc1F)N2` (racemic) [Example 1, (rac)-tert-butyl [{[3,20-difluoro-13-oxa-5,7,18,25-tetraazatetracyclo[17.3.1.1^2,6.1^8,12]pentacosa-1(23),2(25),3,5,8(24),9,11,19,21-nonaen-10-yl]methyl}(methyl)oxido-λ^6-sulfanylidene]carbamate], for which the IC50 was found to be 70 nM in the assay on Caco-2 cells; 13 nM in the assay with A2780 cells; 36 nM with DU145 cells; 3.4 nM at CDK9/CycT1; 99 nM in the assay on B16F10 cells. In addition, the “Selectivity high ATP CDK9 over high ATP CDK2: IC50 (high ATP CDK2)/IC50 (high ATP CDK9)” value (from here on “Selectivity high ATP CDK9”) on CDK9/CycT1 is listed as 249.
Turning to `CS(=N)(=O)Cc1cc2cc(c1)OCCCCNc1cc(ccc1F)-c1nc(ncc1F)N2` (racemic) [Example 2, (rac)-3,20-difluoro-10-[(S-methylsulfonimidoyl)methyl]-13-oxa-5,7,18,25-tetraazatetracyclo[17.3.1.1^2,6.1^8,12]pentacosa-1(23),2(25),3,5,8(24),9,11,19,21-nonaene], the IC50 with Caco-2 cells was 8.4 nM; with A2780 cells, 1.2 nM; with DU145 cells it was 4.5 nM; against CDK9/CycT1, 1.8 nM; in the assay on B16F10 cells it was 1.2 nM. The “Selectivity high ATP CDK9” value on CDK9/CycT1 was 87.
On to `CS(=N)(=O)Cc1cc2cc(c1)OCCCNc1cc(ccc1F)-c1nc(ncc1F)N2` (racemic) [Example 3, (rac)-3,19-difluoro-10-[(S-methylsulfonimidoyl)methyl]-13-oxa-5,7,17,24-tetraazatetracyclo[16.3.1.1^2,6.1^8,12]tetracosa-1(22),2(24),3,5,8(23),9,11,18,20-nonaene], for which the IC50 with Caco-2 cells stood at 20 nM; in the assay on A2780 cells, 5.9 nM; with DU145 cells, 17 nM; against CDK9/CycT1, 1.8 nM; in the assay with B16F10 cells, 25 nM. Besides, on CDK9/CycT1, the “Selectivity high ATP CDK9” value turned out to be 460.
Regarding `CC1CCCNc2cc(ccc2F)-c2nc(ncc2F)Nc2cc(CS(C)(=O)=O)cc(c2)O1` (racemic) [Example 8, (rac)-3,20-difluoro-14-methyl-10-[(methylsulfonyl)methyl]-13-oxa-5,7,18,25-tetraazatetracyclo[17.3.1.1^2,6.1^8,12]pentacosa-1(23),2(25),3,5,8(24),9,11,19,21-nonaene], the IC50 is 7.7 nM in the assay with A2780 cells and 0.8 nM at CDK9/CycT1. Besides, the “Selectivity high ATP CDK9” value on CDK9/CycT1 worked out at 606.
